The target of assay [1] is Endoplasmic reticulum aminopeptidase 1 (Homo sapiens, UniProt Q9NZ08). The assay is described as follows: ERAP1 aminopeptidase inhibitors, dose response, biochemical, cherry-pick, set 2, plate reader (AID 743314).
Assay [2] deals with DNA dC->dU-editing enzyme APOBEC-3A (Homo sapiens, UniProt P31941). Kind of assay: APOBEC3A DNA deaminase inhibitors, dose response, biochemical (AID 504722). Type of assay: functional.
In assay [3] the target is DNA dC->dU-editing enzyme APOBEC-3G (Homo sapiens, UniProt Q9HC16). The assay is described as follows: Dose Response confirmation of small molecule APOBEC3G DNA Deaminase Inhibitors via a fluorescence-based single-stranded DNA deaminase assay. [Related pubchem assays (depositor defined):AID493012, AID493028]. The class given is functional.
For another assay, the target named is Paired box protein Pax-8 (Homo sapiens, UniProt Q06710). The assay is described as follows: inhibitors of PAX8-driven TPO luciferase reporter, dose response, RMG-I cells, cherry-pick (AID 687027).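 Note: luciferase reporter driven by Pax8 target thyroperoxidase promoter measured by SteadyGlo luminescence.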 The class given is functional, cell-based. On the technique in general: In a reporter assay the amount or activity of a reporter protein is the signal.
Assay [4] is described as follows: IGROV1 ovarian cancer cell cytotoxicity, dose response, PAX8 inhibitor project, plate reader, dry powder samples (AID 743043). Type of assay: functional, cell-based. Conditions: IGROV-1.
Assay [5] can be described thus: cytotoxicity in OVCAR8 ovarian cancer cells, dose response, PAX8 project, cell-based, plate reader, dry powder samples (AID 743197). Conditions: OVCAR-8. Type of assay: functional.
The nature of assay [6]: A2780 ovarian cancer cell cytotoxicity, dose response, cytotoxicity control, plate reader, dry powder samples (AID 743046). The class given is functional, cell-based.
Assay [7] can be described thus: NIH:OVCAR-3 ovarian cancer cell cytotoxicity, dose response, PAX8 inhibitor project, plate reader, dry powder samples (AID 743044). The class given is functional, cell-based.
For assay [8], the target named is Induced myeloid leukemia cell differentiation protein Mcl-1 (Homo sapiens, UniProt Q07820). The class given is functional.
The nature of assay [9]: HEK293T cytotoxicity, dose response, cytotoxicity control for miR-122 modulator project, cell-based, inhibitor set, cherry-pick, set 2 (AID 720697). Type of assay: functional.
Assay [10] has as its target Tyrosyl-DNA phosphodiesterase 2 (Homo sapiens, UniProt O95551). The assay is described as follows: human TDP2 enzyme inhibitors, dose response, biochemical, epi absorbance, IC50 (AID 743297).
Assay [11] deals with T1, Polyadenylate-binding protein 1 (Homo sapiens, UniProt P11940). Kind of assay: PABP1 MLLE–PAM2 interaction inhibitors, dose response, miRNA deadenylation inhibitor project, biochemical, fluorescence polarization, Cy5-PAM2 peptide, secondary (AID 602260). The class given is functional. To be noted: read-out: IC50_Mean. On the technique in general: In fluorescence polarisation assays a small probe gives low polarisation when free and higher when bound to something large.

Another assay deals with T2, Caspase-3 (Homo sapiens, UniProt P42574).
T2 sequence (P42574 whole entry): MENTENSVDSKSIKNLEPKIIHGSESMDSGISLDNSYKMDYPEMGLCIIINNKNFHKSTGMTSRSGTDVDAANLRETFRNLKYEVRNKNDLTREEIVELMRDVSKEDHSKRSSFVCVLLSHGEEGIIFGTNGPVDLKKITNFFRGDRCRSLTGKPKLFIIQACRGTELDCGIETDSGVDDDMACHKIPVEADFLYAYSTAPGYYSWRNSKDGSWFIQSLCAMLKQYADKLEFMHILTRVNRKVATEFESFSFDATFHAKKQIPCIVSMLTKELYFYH
The assay is described as follows: Dose-response confirmation of uHTS inhibitor hits of Sentrin-Specific Protease 8 in a Caspase-3 Fluorescence assay. Type of assay: functional.

Assay [12] deals with T3, Sentrin-specific protease 8 (Homo sapiens, UniProt Q96LD8).
T3 sequence (Q96LD8 whole entry): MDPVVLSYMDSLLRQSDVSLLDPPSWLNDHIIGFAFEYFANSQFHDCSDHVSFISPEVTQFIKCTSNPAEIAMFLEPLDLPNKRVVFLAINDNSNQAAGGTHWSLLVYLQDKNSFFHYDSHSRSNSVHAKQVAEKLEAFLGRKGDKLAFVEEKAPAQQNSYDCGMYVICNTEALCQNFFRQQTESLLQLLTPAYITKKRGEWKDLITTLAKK
The class given is functional.

For assay [13], the target named is T3, Sentrin-specific protease 8. The class given is functional. This is another data set of the same source.
Assay [14] concerns the target T1, Polyadenylate-binding protein 1. The assay is described as follows: PABP1 MLLE–PAM2 binding inhibitor potency, dose response, biochemical, fluorescence polarization, FITC-PAM2 peptide (AID 602259). The class given is functional. To be noted: read-out: IC50_Mean.
For assay [15], the target named is T4, Oxysterols receptor LXR-beta (Homo sapiens, UniProt P55055).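 Note: agonist activity at LXR measured by a cell-based luminescence readout across a dose range, run as a counterscreen for daf-12 agonists; HEK293 cells with Gal4-LXR fusion and GAL4-driven luciferase reporter; potency for activation of Gal4-LXR reporter so compounds are agonists.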
T4 sequence (P55055 whole entry): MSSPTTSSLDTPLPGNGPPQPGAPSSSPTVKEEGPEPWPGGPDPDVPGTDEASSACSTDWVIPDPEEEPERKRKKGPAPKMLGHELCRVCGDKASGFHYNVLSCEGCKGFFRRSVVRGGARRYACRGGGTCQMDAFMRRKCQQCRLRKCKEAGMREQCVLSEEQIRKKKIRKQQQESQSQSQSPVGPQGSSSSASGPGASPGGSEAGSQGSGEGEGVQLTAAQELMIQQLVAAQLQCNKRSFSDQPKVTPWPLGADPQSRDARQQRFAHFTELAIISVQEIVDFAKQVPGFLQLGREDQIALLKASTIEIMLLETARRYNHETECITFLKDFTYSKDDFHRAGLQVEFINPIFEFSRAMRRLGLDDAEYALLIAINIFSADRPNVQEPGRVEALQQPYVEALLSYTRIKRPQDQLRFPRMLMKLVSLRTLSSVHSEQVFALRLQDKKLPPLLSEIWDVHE
Type of assay: functional, cell-based.

The next assay deals with H4. The assay is described as follows: Luminescence Cell-Based Dose Response HTS to Identify Activators of 5'UTR Stem-Loop Driven Prion Protein mRNA Translation in H4 Neuroglioblastoma Cells. [Related pubchem assays: 1829 (Project Summary), 1814 (Primary HTS)]. Type of assay: functional. Conditions: Homo sapiens.
A short description of assay [16]: Luminescence Cell-Based Dose Confirmation HTS to Identify Activators of 5'UTR Stem-Loop Driven Alpha-Synuclein mRNA Translation in H4 Neuroglioblastoma Cells. [Related pubchem assays: 1829 (Project Summary), 1814 (Primary HTS)]. Type of assay: functional.
Assay [17] can be described thus: Luminescence Cell-Based Dose Response HTS to Identify Activators of Luciferase Translation or Activity in H4 […] Cells. [Related pubchem assays: 1829 (Project Summary), 1814 (Primary HTS)]. The class given is functional.
Assay [18] can be described thus: HepG2 cell cytotoxicity, dose response, cytotoxicity control, ATP luminescence, cherry-pick, set 6 (AID 1053125). Type of assay: functional, cell-based.
Another assay addresses Kallikrein-7 (Homo sapiens, UniProt P49862). Kind of assay: Fluorescence Intensity-based biochemical primary high throughput dose response assay to identify activators of kallikrein-7 (K7) zymogen.
Another assay in a line: cells. Conditions: HEK293.
A short description of assay [19]: IOSE-T80 ovarian epithelial cell cytotoxicity, dose response, cytotoxicity control for PAX8 inhibitor project, plate reader, dry powder samples (AID 743045). Type of assay: functional, cell-based.

Active and inactive are the calls of the source.

Chain of Paired box protein Pax-8 (Q06710 whole entry): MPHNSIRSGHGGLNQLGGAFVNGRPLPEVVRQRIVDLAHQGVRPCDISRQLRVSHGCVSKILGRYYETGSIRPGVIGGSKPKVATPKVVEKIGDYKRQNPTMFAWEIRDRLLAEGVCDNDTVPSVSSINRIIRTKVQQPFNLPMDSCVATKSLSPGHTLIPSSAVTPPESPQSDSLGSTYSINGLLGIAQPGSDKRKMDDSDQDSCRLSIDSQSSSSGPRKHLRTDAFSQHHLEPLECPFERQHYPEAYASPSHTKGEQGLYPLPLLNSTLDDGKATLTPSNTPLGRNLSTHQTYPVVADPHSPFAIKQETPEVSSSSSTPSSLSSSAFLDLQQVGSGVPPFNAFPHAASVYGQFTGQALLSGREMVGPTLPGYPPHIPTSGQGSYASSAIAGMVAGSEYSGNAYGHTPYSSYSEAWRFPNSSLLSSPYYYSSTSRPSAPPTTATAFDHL
T1 sequence (P11940 whole entry): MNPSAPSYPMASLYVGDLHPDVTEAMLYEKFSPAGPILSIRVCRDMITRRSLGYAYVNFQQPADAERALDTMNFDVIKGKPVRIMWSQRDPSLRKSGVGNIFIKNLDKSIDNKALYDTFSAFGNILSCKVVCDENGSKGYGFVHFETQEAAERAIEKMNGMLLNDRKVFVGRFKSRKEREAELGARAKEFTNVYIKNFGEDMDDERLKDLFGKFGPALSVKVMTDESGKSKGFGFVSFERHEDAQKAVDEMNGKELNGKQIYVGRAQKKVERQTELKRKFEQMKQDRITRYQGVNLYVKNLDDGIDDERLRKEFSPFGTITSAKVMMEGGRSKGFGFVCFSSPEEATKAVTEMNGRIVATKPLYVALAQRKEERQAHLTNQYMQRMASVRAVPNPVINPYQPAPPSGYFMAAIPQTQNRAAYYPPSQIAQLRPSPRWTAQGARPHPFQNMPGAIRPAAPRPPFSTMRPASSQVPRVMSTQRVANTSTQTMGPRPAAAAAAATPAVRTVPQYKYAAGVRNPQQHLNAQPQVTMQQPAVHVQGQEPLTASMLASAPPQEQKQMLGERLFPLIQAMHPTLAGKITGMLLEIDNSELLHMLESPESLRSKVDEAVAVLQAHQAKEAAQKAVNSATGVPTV
Chain of Tyrosyl-DNA phosphodiesterase 2 (O95551 whole entry): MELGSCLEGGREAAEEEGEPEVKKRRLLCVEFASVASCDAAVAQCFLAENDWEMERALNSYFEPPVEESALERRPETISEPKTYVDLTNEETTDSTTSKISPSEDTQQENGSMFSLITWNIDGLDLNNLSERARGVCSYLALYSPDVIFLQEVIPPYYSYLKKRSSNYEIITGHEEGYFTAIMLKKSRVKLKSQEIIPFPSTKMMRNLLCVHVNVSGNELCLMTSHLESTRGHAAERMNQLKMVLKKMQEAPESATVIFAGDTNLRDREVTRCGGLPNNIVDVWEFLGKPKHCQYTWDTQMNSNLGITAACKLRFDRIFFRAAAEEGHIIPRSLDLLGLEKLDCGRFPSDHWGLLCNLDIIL
Chain of Endoplasmic reticulum aminopeptidase 1 (Q9NZ08 whole entry): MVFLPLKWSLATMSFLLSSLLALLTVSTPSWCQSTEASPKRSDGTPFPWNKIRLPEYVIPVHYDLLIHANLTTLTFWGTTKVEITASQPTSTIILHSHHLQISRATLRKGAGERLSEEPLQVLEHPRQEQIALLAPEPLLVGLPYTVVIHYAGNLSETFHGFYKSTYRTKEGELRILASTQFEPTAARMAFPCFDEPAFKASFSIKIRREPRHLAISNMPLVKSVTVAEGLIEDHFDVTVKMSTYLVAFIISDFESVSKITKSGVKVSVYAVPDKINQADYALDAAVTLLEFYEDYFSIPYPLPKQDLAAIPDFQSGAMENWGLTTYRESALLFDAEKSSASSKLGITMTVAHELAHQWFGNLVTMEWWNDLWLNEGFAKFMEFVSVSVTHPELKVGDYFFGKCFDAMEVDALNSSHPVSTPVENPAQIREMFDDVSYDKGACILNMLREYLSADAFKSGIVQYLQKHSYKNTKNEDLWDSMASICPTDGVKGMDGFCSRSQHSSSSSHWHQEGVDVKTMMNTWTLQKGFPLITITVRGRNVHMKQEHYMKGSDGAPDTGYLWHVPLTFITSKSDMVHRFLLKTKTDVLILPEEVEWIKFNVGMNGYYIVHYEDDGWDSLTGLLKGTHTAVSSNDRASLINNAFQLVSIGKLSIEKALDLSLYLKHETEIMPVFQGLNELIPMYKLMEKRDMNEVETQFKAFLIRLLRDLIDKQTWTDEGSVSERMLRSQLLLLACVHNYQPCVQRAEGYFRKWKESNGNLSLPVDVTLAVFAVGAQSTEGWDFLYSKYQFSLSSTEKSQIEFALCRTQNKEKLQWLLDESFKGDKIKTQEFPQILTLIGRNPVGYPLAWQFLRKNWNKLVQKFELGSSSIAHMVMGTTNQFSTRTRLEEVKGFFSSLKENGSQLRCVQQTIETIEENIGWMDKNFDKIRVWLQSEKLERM
Chain of Kallikrein-7 (P49862 whole entry): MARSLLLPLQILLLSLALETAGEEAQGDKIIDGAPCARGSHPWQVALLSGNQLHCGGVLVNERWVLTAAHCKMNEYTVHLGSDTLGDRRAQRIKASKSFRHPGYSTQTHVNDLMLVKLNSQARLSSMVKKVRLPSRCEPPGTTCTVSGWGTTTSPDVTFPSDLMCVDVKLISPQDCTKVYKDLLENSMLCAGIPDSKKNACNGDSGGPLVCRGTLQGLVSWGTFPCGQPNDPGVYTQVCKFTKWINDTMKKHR
Chain of Induced myeloid leukemia cell differentiation protein Mcl-1 (Q07820 whole entry): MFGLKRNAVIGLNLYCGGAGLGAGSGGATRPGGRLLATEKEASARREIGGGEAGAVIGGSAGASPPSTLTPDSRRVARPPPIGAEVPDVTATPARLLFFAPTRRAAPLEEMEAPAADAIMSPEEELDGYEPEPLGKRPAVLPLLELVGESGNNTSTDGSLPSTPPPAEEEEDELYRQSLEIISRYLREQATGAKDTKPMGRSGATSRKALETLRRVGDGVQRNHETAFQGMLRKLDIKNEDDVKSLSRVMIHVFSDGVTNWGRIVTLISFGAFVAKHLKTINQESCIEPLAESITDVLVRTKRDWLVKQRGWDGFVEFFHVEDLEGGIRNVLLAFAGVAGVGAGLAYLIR
Chain of DNA dC->dU-editing enzyme APOBEC-3G (Q9HC16 whole entry): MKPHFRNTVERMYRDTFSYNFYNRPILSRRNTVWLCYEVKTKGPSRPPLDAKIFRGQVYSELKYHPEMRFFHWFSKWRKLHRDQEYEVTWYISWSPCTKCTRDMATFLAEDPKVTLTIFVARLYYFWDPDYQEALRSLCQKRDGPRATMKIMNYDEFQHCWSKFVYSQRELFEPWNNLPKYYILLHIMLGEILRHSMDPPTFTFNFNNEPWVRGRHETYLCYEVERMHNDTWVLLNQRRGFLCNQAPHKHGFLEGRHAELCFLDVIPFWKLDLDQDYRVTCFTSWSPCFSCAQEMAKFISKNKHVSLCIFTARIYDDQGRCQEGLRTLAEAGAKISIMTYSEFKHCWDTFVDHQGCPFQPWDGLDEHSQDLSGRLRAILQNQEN
Chain of DNA dC->dU-editing enzyme APOBEC-3A (P31941 whole entry): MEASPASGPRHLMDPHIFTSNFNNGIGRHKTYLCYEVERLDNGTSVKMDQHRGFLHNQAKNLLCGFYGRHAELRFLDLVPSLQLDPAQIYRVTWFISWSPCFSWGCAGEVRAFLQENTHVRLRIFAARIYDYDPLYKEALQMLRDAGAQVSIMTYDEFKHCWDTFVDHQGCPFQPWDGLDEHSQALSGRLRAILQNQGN

Regarding `O=C(CSc1cnn[nH]1)Nc1cccc(C(=O)O)c1`, in assay [1], the half-maximal activity concentration (AC50) is 8 µM (active). Also, the IC50 is > 100 µM (inactive) in assay [2] and 15.3 µM (active) in [3].
With `C[C@@H]1CCCCO[C@H](CN(C)Cc2ccc(C(F)(F)F)cc2)[C@H](C)CN([C@H](C)CO)C(=O)c2cc(NS(=O)(=O)c3ccc(Cl)cc3)ccc2O1`, the AC50 at Paired box protein Pax-8 was 5.45 µM (active); in [4], 34.6 µM (active); in assay [5], 15.9 µM (active); in assay [6], 39 µM (active); in assay [7], 12.7 µM (active).
Regarding `CN1CCN(c2ccc(Cl)cc2NC(=O)c2ccc(S(=O)(=O)N3CCCCCC3)cc2)CC1`, in assay [8], the IC50 is 3.55 µM (active). For the same molecule, the concentration at half-maximal activity (AC50) in assay [9] was 5.58 µM (active).
In the case of `COc1ccc2c(c1)Cc1sc(NC(C)=O)nc1-2`, the IC50 in assay [10] is 67.5 µM (inactive); in assay [11] it was > 66 µM (inactive); at Caspase-3, 23.9 µM (active); in [12], 9.19 µM (active); in assay [13], 6.35 µM (active); in [14] it was > 66 µM (inactive).
On to `Cc1cc(-c2nc3cccnc3s2)ccc1NS(=O)(=O)c1cccs1`, for which the EC50 is > 67.5 µM (inactive) in assay [15], 0.197 µM (active) in the assay with H4, 9.73 µM (active) in assay [16] and 30.8 µM (active) in [17]. Besides, the half-maximal activity concentration (AC50) in [18] is 7.51 µM (active).
Consider `Cc1cccn2c(=O)c3cc(C#N)/c(=N/C(=O)c4ccccc4)n(Cc4ccco4)c3nc12`, for which the EC50 on Kallikrein-7 is 7.95 µM (active).
`CC1CCN(C(=O)COc2cccc3c2CCN(Cc2ccccc2)C3=O)CC1`: the concentration at half-maximal activity (AC50) in “cells” was 28.7 µM (active).
As for `C[C@@H]1CCCCO[C@H](CN(C)Cc2ccccc2)[C@H](C)CN([C@@H](C)CO)C(=O)c2cc(NC(=O)Nc3ccc(C(F)(F)F)cc3)ccc2O1`, the half-maximal activity concentration (AC50) on Paired box protein Pax-8 is 9.11 µM (active); in assay [7], 42.1 µM (active); in assay [19], 45.7 µM (active).

The AC50 is the concentration at which the activity in the assay is half-maximal. As a reminder, the EC50 is the concentration needed to bring the measured effect to its halfway point.

Source of the values: ChEMBL document CHEMBL1201862, “PubChem BioAssay data set” (2004).
